Patent US20230310377A1, “METHODS OF TREATING LYSOSOMAL STORAGE DISEASES AND METHODS RELATED THERETO” (RECURSION PHARMACEUTICALS, INC., priority 2020, published 2023)

Legend:
Assay type in all cases: cell-based
[1] = system: Sandhoff (HEXB) disease and Tay-Sachs (HEXA) disease patient fibroblasts; assay: GM2 ganglioside accumulation (immunofluorescence) in Sandhoff and Tay-Sachs patient fibroblasts; settings: Homo sapiens, Fibroblast
Procedure: (§1) Healthy, Sandhoff (HEXB) disease, and Tay-Sachs (HEXA) disease patient fibroblasts were plated and treated with ruboxistaurin mesylate twice over 17 days. At day 0 cells were seeded. On day 5 the media was changed and initial dose of the compound was delivered. On day 10 the media was changed again and the second dose of the compound was delivered. On day 17 the cells were fixed, immunoflourescence-labeled, and imaged for GM2 (see FIG. 1). […] FIGS. 2A-1 and 3A depict the dose response for two separate experiments. FIGS. 2B-1 and 3B depict mean fluorescence or mean aggregate count for each experiment±SEM of technical replicates, combining 3-5 patient lines for each group. n=12-40 images from two well replicates imaged at 4-sites per well for each line at each dose. Data in each panel represents n=1 experiment performed. FIGS. 2C and 3C depict nuclei per image from the same image sets.
(§2) The same experiment was performed for each of sotrastaurin, enzastaurin, LY2090314, AZD1080, and AZD2858. FIG. 2A-2 depicts the dose response for sotrastaurin. FIG. 2A-3 depicts the dose response for enzastaurin.
EC50 calculations were based on GM2 aggregate counts (not mean fluorescence).
The leftmost concentration in all graphs is DMSO control.

[2] = system: Tay-Sachs (HEXA) disease patient fibroblasts; assay: GM2 ganglioside accumulation in Tay-Sachs (HEXA) patient fibroblasts; settings: Homo sapiens, Fibroblast, read-out: GM2 ganglioside ED50 for HEXA
Procedure: as §1, §2

[3] = system: Sandhoff (HEXB) disease patient fibroblasts; assay: GM2 ganglioside accumulation in Sandhoff (HEXB) patient fibroblasts; settings: Homo sapiens, Fibroblast, read-out: GM2 ganglioside ED50 for HEXB
Procedure: as §1, §2

[4] = system: Sandhoff (HEXB) disease and Tay-Sachs (HEXA) disease patient fibroblasts; assay: Mean cytoplasmic autofluorescence in patient fibroblasts; settings: Homo sapiens, Fibroblast, experimentally determined, read-out: autofluorescence ED50
Procedure: as §1
FIGS. 2D-1 and 2D-2 depict mean cytoplasmic autofluorescence for ruboxistaurin and sotrastaurin, respectively.

[5] = GM2 aggregate counts (not mean fluorescence), Expmts 1936 and 1925, read-out: ED50 based on GM2 aggregate counts
[6] = experimentally determined, patient fibroblasts, read-out: GM2 ganglioside ED50

Row | SMILES | EC50 [1, 5] [nM] | EC50 [1, 6] [nM] | further results
1 | N#Cc1ccc2[nH]c(O)c(-c3ccc(CN4CCOCC4)cn3)c2c1 [AZD1080] | 1590 |  | 
2 | O=C1NC(=O)C(c2cnc3ccccn23)=C1c1cn2c3c(cc(F)cc13)CN(C(=O)N1CCCCC1)CC2 [LY2090314] | 8.76 |  | 
3 | Cn1cc(C2=C(c3cn(C4CCN(Cc5ccccn5)CC4)c4ccccc34)C(=O)NC2=O)c2ccccc21 [Enzastaurin] |  |  | EC50 [2]: ~265 nM; EC50 [3]: ~550 nM
4 | CN1CCN(c2nc(C3=C(c4c[nH]c5ccccc45)C(=O)NC3=O)c3ccccc3n2)CC1 [Sotrastaurin] |  | ~90 | 
5 | CN(C)C[C@@H]1CCn2cc(c3ccccc32)C2=C(C(=O)NC2=O)c2cn(c3ccccc23)CCO1 [Ruboxistaurin, (18S)-18-[(dimethylamino)methyl]-17-oxa-4,14,21-triazahexacyclo[19.6.1.17,14.02,6.08,13.022,27]nonacosa-1(28),2(6),7(29),8,10,12,22,24,26-nonaene-3,5-dione] |  | ~300 | EC50 [4]: ~250 nM
